Results published in US12686699B2, “Crystalline forms of squalamine” (priority 2020, dated 2026).
“Also recorded” adds a separate entry of the source. Like-named read-outs stand apart in the source and are kept apart here.

Experiments:
Assay type in all cases: physicochemical
[1] = Solubility in biorelevant media (shake-flask)
Experimental: The experiments were performed in triplicate. Approximately 30 mg of API were weighed in the 8 mL glass vials and an aliquot of media was added (see Table 14 for details). […] Upon completion of the equilibration time, the solids were separated from the liquid phases by centrifugation. The mother liquors were filtered using […] PTFE filters and injected at the HPLC to determine the API concentration in solution. The pH was recorded after 3 hours (1 hour for FaSSGF). The recovered ambient-dried solids were analyzed by HT-XRPD.

[2] = Intrinsic dissolution rate determination in FaSSGF; conditions: for IDR: FaSSGF pH 1.6, 37° C., interval 3-30 min (Form A1), 10-45 min (Form C); for API concentration in solution: FaSSGF, 37° C.
Experimental: The intrinsic dissolution rate of Forms A1 and C was determined in FaSSGF. […] The pressure applied was approximately 40 bar for 2 minutes. The two tablets were placed in 30 mL vials and afterwards the FaSSGF solution pre-warmed at 37° C. […] After FaSSGF addition, stirring was started. The medium (20 mL) was added to vessels containing tablets of Forms A1 and C. The tablets were kept at 37° C. under continuous stirring. […] In the plot shown in FIG. 14, the % concentration of the API in solution is plotted against the time. The dissolution rate (Table 16) was calculated in the interval between 3 and 30 minutes for the experiment started with Form A1, and in the range 10-45 minutes for the experiment started with Form C.

[3] = Dynamic Vapor Sorption (DVS) measurement; conditions: for hygroscopic behavior: 40 to 95% RH
[4] = Variable Humidity XRPD (VH-XRPD); conditions: 30° C., RH profile 40→87→0→60% (Form A1), 40→85→0→60% (Form C)
Experimental: The powder data were collected on D8 Advance diffractometer using Cu Kα1 radiation (1.54056 Å) with germanium monochromator at 30° C. using the SYCOS H-HOT hot humid chamber produced by Ansyco GmbH. The data were collected in the Bragg-Brentano geometry (locked coupled) from 8 to 35° 2θ on the flat sample holder (without rotation) on solid state LynxEye detector with 0.018° per step with 1 sec/step scan speed. After reaching demanded humidity the sample was relaxed for 5 minutes before measurement. The sample was optionally measured with 2 seconds per step and in the last measurement at RH 0% the relaxation time was elongated to 30 min.
Variable Humidity XRPD (VH-XRPD) measurements were performed on Forms A1 and C to investigate the in-situ phase changes induced by exposure to variable RH levels. Diffractograms of Form A1 were collected at 30° C. with a RH profile of 40→87→0→60% (FIG. 2). Initially, the pattern of Form A1 was distinguished at 40% RH. By increasing the RH level up to 87%, no changes in the XRPD pattern were detected. Furthermore, no changes were observed by lowering the RH from 87% down to 20%.

[5] = Physical stability test of solid forms
Experimental: Solid samples of Forms A1, B1 and C were incubated at three different conditions to test their physical stability: 80° C., closed vial, 24 hours; 60° C./29% RH, open vial, 48 hours; and 40° C./75% RH, open vial, 48 hours. The solids recovered after the stability studies were analyzed by HR-XRPD, TGMS and DSC.

[6] = Exposure to accelerated aging conditions (AAC); conditions: 40° C./75% RH for 2 days
Description: The polymorphic behavior of squalamine phosphate (ENT-01) and the physico-chemical properties of two hydrated phases were investigated. A squalamine tetrahydrate, designated Form A1, was identified. The squalamine polymorphism assessment and hydrate screen allowed identification of several squalamine crystalline phases. Among these phases, four squalamine hydrates (Forms B1, B2, C, D) and three mixed squalamine hydrates/solvates (Forms A2, E, F) were identified. All phases converted to squalamine Form A1 upon exposure to accelerated aging conditions (ACC) (2 days at 40° C./75% RH).
In the vacuum-dried solids, a novel pattern very similar to Form A1 but with shifted peaks was identified. This phase was designated Form A2 (see Table 2) and characterized by HT-XRPD. […] Form A2 was identified in several vacuum-dried solids recovered from the hydrate screen experiments.

[7] = FaSSGF (pH 1.6), 37° C., 1 hour
[8] = FaSSIF (pH 6.5), 37° C., 3 hours
[9] = desorption, between 5 and 0% RH
[10] = desorption, between 25 and 5% RH
[11] = first sorption cycle, between 45 and 95% RH
[12] = last sorption cycle, between 25 and 45% RH
[13] = after 40° C./75% RH, open vial, 48 h (TGMS)
[14] = after 60° C./29% RH, open vial, 48 h (TGMS)
[15] = after 80° C., closed vial, 24 h (TGMS)

| Compound | SOLUBILITY [1, 7] | SOLUBILITY [1, 8] | IDR [2] | API concentration in solution ([2]; after 45 minutes) | API concentration in solution ([2]; after 60 minutes) | hygroscopic behavior [3] | change in mass [3, 9] | change in mass [3, 10] | change in mass (water vapor uptake) [3, 11] | change in mass ([3]; last sorption cycle, 0-25% RH) | change in mass (water vapor uptake) [3, 12] | physical stability under variable RH levels [4] | Solid Phase Composition ([5]; 40° C./75% RH, open vial, 48 h) | Solid Phase Composition ([5]; 60° C./29% RH, open vial, 48 h) | Solid Phase Composition ([5]; 80° C., closed vial, 24 h) | Mass loss [5, 13] | Mass loss [5, 14] | Mass loss [5, 15] | also measured |
| --- | --- | --- | --- | --- | --- | --- | --- | --- | --- | --- | --- | --- | --- | --- | --- | --- | --- | --- | --- |
| CC(C)[C@@H](CC[C@@H](C)[C@H]1CC[C@H]2[C@@H]3[C@H](O)C[C@H]4C[C@@H](NCCCNCCCCN)CC[C@]4(C)[C@H]3CC[C@]12C)OS(=O)(=O)O.O=P(O)(O)O [Form A1, squalamine phosphate] | ~ 9 mg/mL | practically insoluble | 0.049 mg/min/cm^2 | ~20% | above 30% | slightly hygroscopic | 5.3% | 1.7% | 2.1% | 7% | 0.6% | stable in the range 40→87→20% RH; also recorded: started to release water at RH levels below 20% | physically stable | physically stable | physically stable | 9.2% | 8.5% | 9.1% | SOLUBILITY ([1]; 37 °C, pH 1.6, fassgf or other biorelevant, thermodynamic from solid, FaSSGF (pH 1.6), 1 hour, read-out: SOLUBILITY): 9 mg/mL; SOLUBILITY ([1]; 37 °C, pH 5.1, fessif, thermodynamic from solid, FeSSIF (initial medium pH 5.1), 3 hours, read-out: SOLUBILITY): ~1 mg/mL; SOLUBILITY ([1]; 37 °C, pH 6.5, fassif, thermodynamic from solid, FaSSIF (pH 6.5), 3 hours, read-out: SOLUBILITY): < 0.1 mg/mL; SOLUBILITY ([1]; FaSSGF (pH 1.6), 37° C., 1 hour, listed as A1): 8.9 mg/mL; SOLUBILITY ([1]; FeSSIF (initial medium pH 5.1), 37° C., 3 hours, listed as Al): 0.8 mg/mL; change in mass (water absorbed) ([3]; between 35 to 65% RH): 0.7%; change in mass ([3]; desorption, 95-55% RH): 0.9%; change in mass ([3]; desorption, between 45 and 25% RH): 0.6%; change in mass ([3]; desorption, between 55 and 45% RH): 1% |
| CC(C)[C@@H](CC[C@@H](C)[C@H]1CC[C@H]2[C@@H]3[C@H](O)C[C@H]4C[C@@H](NCCCNCCCCN)CC[C@]4(C)[C@H]3CC[C@]12C)OS(=O)(=O)O.O=P(O)(O)O [Form B1, squalamine phosphate] | – | – | – | – | – | – | – | – | – | – | – | – | converted to Form A1 | converted to Form A1; also recorded: converting to squalamine Form A1 | physically stable | 8.9% | 9.0% | 1.8% | – |
| CC(C)[C@@H](CC[C@@H](C)[C@H]1CC[C@H]2[C@@H]3[C@H](O)C[C@H]4C[C@@H](NCCCNCCCCN)CC[C@]4(C)[C@H]3CC[C@]12C)OS(=O)(=O)O.O=P(O)(O)O [Form C, squalamine phosphate] | 16.9 mg/mL | practically insoluble | 0.014 mg/min/cm^2 | below 10% | above 20% | slightly hygroscopic | 6% | 7.3% | 3.1% | 8.1% | 1.4% | physically stable in the range 40→85→40% RH | physically stable | converted to Form A1 | converted to Form A1 | 12.6% | 8.7% | 8.8% | SOLUBILITY ([1]; FaSSIF (pH 6.5), 37° C., 3 hours, listed as C): <0.1 mg/mL; SOLUBILITY ([1]; FeSSIF (initial medium pH 5.1), 37° C., 3 hours): ~1 mg/mL; SOLUBILITY ([1]; FeSSIF (initial medium pH 5.1), 37° C., 3 hours, listed as C): 0.9 mg/mL |
| CC(C)[C@@H](CC[C@@H](C)[C@H]1CCC2C3C(CC[C@@]21C)[C@@]1(C)CC[C@H](NCCCNCCCCN)C[C@@H]1C[C@H]3O)OS(=O)(=O)O.O=P(O)(O)O (stereo partly shown) [Form D, squalamine phosphate] | – | – | – | – | – | – | – | – | – | – | – | – | – | – | – | – | – | – | physical stability upon exposure to AAC [6]: physically unstable |
